Key:
Assay type in all cases: in vivo
Poa annua [1] = assay: Herbicidal pre-emergence action (Part 2), 1280 g/ha; settings: application rate 1280 g/ha, scored visually after about 3 weeks, Table D3
Summary of the method: (§1)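 Surface soil treatment over sown weed seeds in sandy loam used formulated compound in water with 0.5% additive at a 600 L/ha spray volume. Effect was rated visually in percent versus untreated plants after about three weeks of greenhouse growth.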

Amaranthus retroflexus [2] = assay: as above; settings: application rate 1280 g/ha, scored visually after about 3 weeks, Table D6
Summary of the method: as §1

Echinochloa crus-galli = assay: as above; settings: application rate 1280 g/ha, scored visually after about 3 weeks, Table D1
Summary of the method: as §1

Abutilon theophrasti [3] = assay: as above; settings: application rate 1280 g/ha, scored visually after about 3 weeks, Table D5
Summary of the method: as §1

Stellaria media [4] = assay: as above; settings: application rate 1280 g/ha, scored visually after about 3 weeks, Table D8
Summary of the method: as §1

Setaria viridis = assay: as above; settings: application rate 1280 g/ha, scored visually after about 3 weeks, Table D4
Summary of the method: as §1

Matricaria inodora [5] = assay: as above; settings: application rate 1280 g/ha, scored visually after about 3 weeks, Table D7
Summary of the method: as §1

Amaranthus retroflexus [6] = assay: Herbicidal post-emergence action (Part 2), 1280 g/ha; settings: application rate 1280 g/ha, rated visually after about 3 weeks, Table C5
Summary of the method: (§2)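 Plants at the one-leaf stage were treated on green parts with wettable powder or emulsion concentrate preparations diluted in water containing 0.5% additive. Effects were judged by eye after about 3 weeks in the greenhouse, relative to untreated plants.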

Abutilon theophrasti [7] = assay: as above; settings: application rate 1280 g/ha, rated visually after about 3 weeks, Table C4
Summary of the method: as §2

Stellaria media [8] = assay: as above; settings: application rate 1280 g/ha, rated visually after about 3 weeks, Table C7
Summary of the method: as §2

Matricaria inodora [9] = assay: as above; settings: application rate 1280 g/ha, rated visually after about 3 weeks, Table C6
Summary of the method: as §2

Poa annua [10] = assay: as above; settings: application rate 1280 g/ha, rated visually after about 3 weeks, Table C2
Summary of the method: as §2

Compound	Poa Annua (Poa annua [1])	Amaranthus retroflexus (Amaranthus retroflexus [2])	Echinochloa crus-galli (Echinochloa crus-galli)	Abutilon theophrasti (Abutilon theophrasti [3])	Stellaria media (Stellaria media [4])	Setaria viridis (Setaria viridis)	Matricaria inodora (Matricaria inodora [5])	Amaranthus retroflexus (Amaranthus retroflexus [6])	Abutilon theophrasti (Abutilon theophrasti [7])	Stellaria media (Stellaria media [8])	Matricaria inodora (Matricaria inodora [9])	Poa Annua (Poa annua [10])
CC(C)C(=O)OC1CCN(C)C(=O)N1c1cc(C(C)(C)C)no1 (stereo not shown) [I.5-290, 3-(3-tert-Butyl-1,2-oxazol-5-yl)-1-methyl-2-oxohexahydropyrimidin-4-yl 2-methylpropanoate]	90%	100%	90%	100%	100%	90%	90%	100%	100%	100%	100%	–
CC(=O)OC1N(c2cc(C(C)(C)C)on2)C(=O)N(C)CC1(C)C (stereo not shown) [I.62-162]	100%	100%	90%	100%	100%	100%	100%	100%	100%	–	100%	100%
